Measured values reported in the NIST ThermoML archive (doi:10.1016/j.jct.2012.08.033).

Test: xn = mol fraction of the nth substance listed
Conditions: Liquid, vibrating tube

C1CCOC1 [tetrahydrofuran] + O
mass density [kg/m3]
Conditions | 78.5 kPa | 100.7 kPa
293.24 K, x2 = 0.3407 | 907.81 | 907.93
293.24 K, x2 = 0.988 | 995.8 | 995.84
293.25 K, x2 = 0.9826 | 994.97 | 994.99
293.25 K, x2 = 0.9921 | 996.53 | 996.6
293.26 K, x2 = 0.0208 | 888.12 | 888.29
293.26 K, x2 = 0.0404 | 889.02 | 889.18
293.26 K, x2 = 0.0872 | 892.05 | 892.21
293.26 K, x2 = 0.9418 | 990.31 | 990.26
293.26 K, x2 = 0.9519 | 991.46 | 991.41
293.26 K, x2 = 0.9573 | 992.11 | 992.05
293.26 K, x2 = 0.9709 | 993.71 | 993.65
293.26 K, x2 = 0.9723 | 993.83 | 993.77
293.27 K, x2 = 0.0269 | 888.46 | 888.63
293.27 K, x2 = 0.0429 | 889.18 | 889.35
293.27 K, x2 = 0.0593 | 890.14 | 890.31
293.27 K, x2 = 0.6092 | 934.46 | 934.53
293.28 K, x2 = 0.8857 | 981.21 | 981.18
298.21 K, x2 = 0.3407 | 902.44 | 902.65
298.22 K, x2 = 0.0872 | 886.71 | 886.95
298.22 K, x2 = 0.988 | 994.42 | 994.44
298.22 K, x2 = 0.9921 | 995.23 | 995.24
298.23 K, x2 = 0.0269 | 883.01 | 883.22
298.23 K, x2 = 0.9418 | 987.77 | 987.8
298.23 K, x2 = 0.9723 | 992.08 | 992.11
298.23 K, x2 = 0.9826 | 993.47 | 993.49
298.24 K, x2 = 0.0208 | 882.73 | 882.93
298.24 K, x2 = 0.0593 | 884.65 | 884.9
298.24 K, x2 = 0.9573 | 989.99 | 990.02
298.24 K, x2 = 0.9709 | 991.93 | 991.95
298.25 K, x2 = 0.0429 | 883.9 | 883.99
298.25 K, x2 = 0.6092 | 929.43 | 929.58
298.25 K, x2 = 0.9519 | 989.15 | 989.18
298.26 K, x2 = 0.8857 | 977.6 | 977.65
298.29 K, x2 = 0.0404 | 883.74 | 883.83
303.07 K, x2 = 0.3407 | 897.21 | 897.4
303.09 K, x2 = 0.9418 | 985.17 | 985.19
303.1 K, x2 = 0.0269 | 877.63 | 877.86
303.1 K, x2 = 0.0872 | 881.49 | 881.71
303.1 K, x2 = 0.9519 | 986.82 | 986.81
303.1 K, x2 = 0.988 | 993 | 992.98
303.1 K, x2 = 0.9921 | 993.8 | 993.78
303.11 K, x2 = 0.0404 | 878.23 | 878.45
303.11 K, x2 = 0.0593 | 879.35 | 879.58
303.11 K, x2 = 0.9573 | 987.79 | 987.78
303.11 K, x2 = 0.9723 | 990.22 | 990.21
303.11 K, x2 = 0.9826 | 991.87 | 991.85
303.12 K, x2 = 0.0208 | 877.38 | 877.61
303.12 K, x2 = 0.6092 | 924.49 | 924.62
303.12 K, x2 = 0.9709 | 990.08 | 990.06
303.13 K, x2 = 0.0429 | 878.4 | 878.63
303.13 K, x2 = 0.8857 | 974.05 | 974.07
308.19 K, x2 = 0.3407 | 891.62 | 891.86
308.22 K, x2 = 0.0872 | 875.87 | 876.14
308.22 K, x2 = 0.9418 | 982.23 | 982.27
308.22 K, x2 = 0.9519 | 984.2 | 984.24
308.22 K, x2 = 0.9921 | 991.99 | 992.01
308.23 K, x2 = 0.0269 | 871.92 | 872.19
308.23 K, x2 = 0.0404 | 872.54 | 872.75
308.23 K, x2 = 0.0593 | 873.61 | 873.88
308.23 K, x2 = 0.988 | 991.08 | 991.1
308.24 K, x2 = 0.0208 | 871.65 | 871.93
308.24 K, x2 = 0.9723 | 988.08 | 988.11
308.24 K, x2 = 0.9826 | 989.93 | 989.95
308.25 K, x2 = 0.6092 | 919.21 | 919.38
308.25 K, x2 = 0.8857 | 970.11 | 970.18
308.25 K, x2 = 0.9573 | 985.24 | 985.28
308.25 K, x2 = 0.9709 | 987.99 | 987.82
308.26 K, x2 = 0.0429 | 872.71 | 872.89
313.26 K, x2 = 0.3407 | 886.03 | 886.33
313.28 K, x2 = 0.0269 | 866.21 | 866.56
313.28 K, x2 = 0.0872 | 869.29 | 869.63
313.28 K, x2 = 0.9418 | 979.18 | 979.28
313.29 K, x2 = 0.0593 | 867.9 | 868.25
313.29 K, x2 = 0.9519 | 981.33 | 981.43
313.29 K, x2 = 0.9921 | 990.02 | 990.1
313.3 K, x2 = 0.0404 | 866.86 | 867.21
313.3 K, x2 = 0.988 | 989.08 | 989.16
313.31 K, x2 = 0.9826 | 987.78 | 987.87
313.32 K, x2 = 0.6092 | 913.96 | 914.2
313.32 K, x2 = 0.9723 | 985.71 | 985.8
313.33 K, x2 = 0.9709 | 985.46 | 985.55
313.34 K, x2 = 0.0208 | 866.07 | 866.42
313.34 K, x2 = 0.8857 | 966.2 | 966.33
313.34 K, x2 = 0.9573 | 982.55 | 982.65
313.35 K, x2 = 0.0429 | 867.1 | 867.44
